The record followed here is paper PMC7086363, “All-stage precisional glioma targeted therapy enabled by a well-designed D-peptide” (Theranostics, 2020).

One test has as its system intracranial U87 glioma. In words: Kaplan-Meier survival of intracranial glioma bearing nude mice. It is filed as in vivo. Conditions: n = 8. How it is done:
The intracranial glioma bearing mice were used to evaluate the anti-glioma efficacy of various therapeutic regimen.
Concurrent combination chemotherapy has been emerging as a promising approach to improve the efficacy of cancer therapy [29]-[31]. Thus, ^DWVAP Micelle/PTL was used in combination with TMZ and ^DWVAP Micelle/PTX respectively in the present study. For TMZ dosage regimen, mice were randomly divided into four groups (n = 8) and treated with 100 μL of saline, ^DWVAP Micelle/PTL (5 mg/kg), TMZ (10 mg/kg) and ^DWVAP Micelle/PTL plus TMZ (5 mg/kg and 10 mg/kg, respectively) via oral gavage or tail vein. […] Compared with TMZ, the combinational therapy prolonged the median survival time by 2.10 times (Figure 6A). […] The slices were also stained with anti-CD133 antibody to quantify glioma stem cells. […]
Figure 6 Kaplan-Meier survival curves of intracranial glioblastoma-implanted nude mice treated with different regimens. […] Quantification of angiogenesis inhibition in tumors with different formulations in comparison to saline group (D). […] Quantification of TUNEL positive cells in tumors with different formulations in comparison to saline group (F). […] Quantification of tumor stem cell inhibition in tumors with different formulations in comparison to saline group (H). […]

For test [1], the system named is NF-κB p65 nuclear translocation in U87 cells. In words: NF-κB activation and nuclear translocation assay (immunofluorescence). It is filed as cell-based. Particulars: 24 h treatment, Figure 7D-F. From the text:
NF-κB plays a pivotal role in tumorigenesis through multiple signaling pathways. Aberrant activation of NF-κB has been observed in various types of cancer. Constitutive activation of NF-κB often causes bad response or resistance to chemotherapeutics, tumor recurrence, and poor outcome of treatment. Conversely, inhibition of NF-κB could sensitize the glioma cells to chemotherapy. The combination of PTL with PTX and TMZ in the present study enhanced anti-glioma efficacy in experimental animals. Since PTL is a potent inhibitor of NF-κB, the inhibitory activities of different PTL formulations on NF-κB pathway were examined. Immunofluorescence was used to detect NF-κB activation and nuclear translocation. After treatment with different formulations for 24 h, cells were processed for confocal fluorescence microscopic imaging. […] In addition, we also analyzed the p65 protein level in the nucleus of U87 cells by western blotting (Figure S7) and the results were consistent with immunofluorescence.
NF-κB activation and nuclear translocation assay was performed according to the reagent manufacturer's instructions (Beyotime Biotech, China). Briefly, cells were seeded in four-well disk and then treated with different drug loaded micelles or free drug alone or in combinations for 24 h. […] The protein concentrations were quantified using BCA Protein Assay Kit (Thermo Fisher Scientific). […]

The next test relates to OPC cells. In words: Cellular internalization of fluorescein labelled peptides in OPC cells (GSC targeting). Format: cell-based. Conditions: confocal microscopy, Figure 2E. How it is done:
(§1) The targeting ability of ^DWVAP was evaluated in primary rat brain capillary endothelial cells (BCECs), HUVECs and U87 cells. […] OPC cells were previously proven as a cell line of glioma cell-of-origin with under-appreciated proliferative and plastic potentials. OPC cells were used here to evaluate the GSCs targeting effect of the developed peptides. […] In vivo, near-infrared dye Cy7 was conjugated with peptides and the conjugates were intravenously injected via the tail vein to test the targeting effect of ^DWVAP.
(§2) Brain capillary endothelial cells (BCEC), U87 cells and HUVEC cells were used to investigate the peptides targeting ability since they were main component of BBB, tumor and tumor vessels respectively. OPC cells were used to evaluate the glioma stem cell targeting ability in vitro [38]. Cellular uptake behavior was observed by the confocal microscope and the fluorescent intensity was captured by flow cytometry 4 hours after pre-incubation with different fluorescein labelled peptides.

For the next test, the system named is U87 cells. In words: Cellular internalization of fluorescein labelled peptides in U87 cells (flow cytometry). Format: cell-based. Particulars: 4 hours, Figure S1. How it is done:
as §1, §2

A further test relates to HUVECs. In words: Cellular internalization of fluorescein labelled peptides in HUVECs (flow cytometry). It is filed as cell-based, human. Conditions: 4 hours, Figure S1. The protocol: as §1, §2
Test [2] deals with T1, Recombinant human GRP78 protein (human, UniProt P11021 19-654).
T1 construct: GRP78, human, recombinant; No catalogue number, tag or limits printed; source: bought: Abcam
In words: SPR; Biacore T200; recombinant human GRP78 amine-coupled to a CM5 sensor chip; peptides in 2-fold serial dilution injected at 30 µL/min; buffer HBS-N or HBS-EP (methods). Conditions: both partners purified.

Where a SMILES comes first, the peptide text is derived from it. Where no end group is shown, it is not given here. [ ]: non-standard residue; d: D form. Ahx = NCCCCCC(=O)O

T1 sequence (P11021 19-654): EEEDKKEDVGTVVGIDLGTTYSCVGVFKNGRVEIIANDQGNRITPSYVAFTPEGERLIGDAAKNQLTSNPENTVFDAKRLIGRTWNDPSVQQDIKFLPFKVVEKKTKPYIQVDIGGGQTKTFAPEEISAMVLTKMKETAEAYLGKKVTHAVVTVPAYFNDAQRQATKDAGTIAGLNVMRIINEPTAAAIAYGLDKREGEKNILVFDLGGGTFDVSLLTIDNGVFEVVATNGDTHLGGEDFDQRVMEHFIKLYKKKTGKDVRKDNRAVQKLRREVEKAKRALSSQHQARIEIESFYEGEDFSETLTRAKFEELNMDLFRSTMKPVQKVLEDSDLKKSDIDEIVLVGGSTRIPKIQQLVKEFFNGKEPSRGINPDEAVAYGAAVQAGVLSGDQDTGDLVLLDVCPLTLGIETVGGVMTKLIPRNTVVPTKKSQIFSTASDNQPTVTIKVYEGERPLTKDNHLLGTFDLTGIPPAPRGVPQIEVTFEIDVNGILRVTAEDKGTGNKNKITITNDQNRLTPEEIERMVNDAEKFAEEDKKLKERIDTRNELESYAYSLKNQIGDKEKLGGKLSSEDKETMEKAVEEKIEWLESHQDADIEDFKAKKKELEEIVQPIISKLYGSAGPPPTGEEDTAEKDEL

Take `CC(=O)O[C@H]1C(=O)[C@@]2(C)[C@H]([C@H](OC(=O)c3ccccc3)[C@]3(O)C[C@H](OC(=O)[C@H](O)[C@@H](NC(=O)c4ccccc4)c4ccccc4)C(C)=C1C3(C)C)[C@]1(OC(C)=O)CO[C@@H]1C[C@@H]2O` [Taxol, Paclitaxel]: the median survival time in the test on intracranial U87 glioma (Figure S5A, four injections, 6 mg/kg PTX each, at 6, 9, 12 and 15 days after implantation) is 20 days. As to `C=C1C(=O)O[C@H]2[C@H]1CC/C(C)=C/CC[C@@]1(C)O[C@@H]21` [PTL, Parthenolide], in the test with intracranial U87 glioma (Figure S5B, 5 mg/kg PTL at 6, 8, 10, 12 and 14 days post-tumor implantation, saline 29.5 days), the median survival was 32 days. For the same molecule, the p65 nuclear translocation result in test [1] is “inhibition of p65”. On to `CC(C)[C@@H](NC(=O)[C@@H](CCCNC(=N)N)NC(=O)[C@H](NC(=O)[C@@H](CC(N)=O)NC(=O)[C@H](N)CO)[C@H](C)O)C(=O)N[C@H](C)C(=O)N1CCC[C@@H]1C(=O)N[C@H](CS)C(=O)O` [^DVAP] (HELM PEPTIDE1{[dS].[dN].[dT].[dR].[dV].[dA].[dP].[dC]}$$$$V2.0; N-terminus and C-terminus assumed), for which, in the test on OPC cells, the “uptake by OPC cells” value is on record as “effectively taken up”. Further, in the test on U87 cells, the “fluorescence-positive U87 cells” value is “More than 90%”. For the same molecule, the “fluorescence-positive HUVECs” value in the test on HUVECs is recorded as more than 80%.

B1: "Y-shaped" ^DWVAP peptide (peptide)
peptide: [dS][dN][dT][dR][dV][dA][dP][dC][Ahx][dW][dS][dW]G[dP][dY][dS]
modifications: not fully specified
notes: ^DVAP stretch (all-D) with D-Cys, ligand of GRP78; ^DWSW stretch (all-D), quorum-sensing peptide; joined to the first stretch through aminocaproic acid (Ahx), which has no one-letter code; also called ^DWVAP-Cys; ^DS^DN^DT^DR^DV^DA^DP^DC-Ahx-^DW^DS^DW^DG^DP^DY^DS; source: synthetic peptide (solid phase peptide synthesis)
Turning to B1, the dissociation constant Kd in test [2] is 686 nM.

B2: ^DVAP peptide (peptide)
peptide: [dS][dN][dT][dR][dV][dA][dP][dC]
notes: all-D peptide ligand of GRP78; also called ^DS^DN^DT^DR^DV^DA^DP; ^DS^DN^DT^DR^DV^DA^DP^DC; source: synthetic peptide, bought: Karebay Biochem
B2: the Kd in test [2] amounted to 102 nM.
